Test results published in article PMC6297231 (Nature Communications, 2018).

Assays:
Assay in all cases: cells
KMS12BM = details: Homo sapiens, KMS-12-BM, 6 h, read-out: AZD5991 6h EC50
Description: (§1) Cells were plated at 3000 cells/well in 384-well white plates in corresponding cell growth media. […] Caspase-3/7 activation was subsequently determined using a Caspase-Glo 3/7 Reagent (Promega) and viability was assayed using the CellTiter-Glo Reagent (Promega) as described in manufacturer’s instructions. Dose–response curves for caspase-3/7 activation and viability were plotted and analyzed (including EC50 and GI50 determination) using GraphPad Prism. Percentage of caspase activation was calculated against the maximum caspase activation value (100%) obtained with a proprietary cell kill control.

MCF7 = details: Homo sapiens, MCF7, 6 h, read-out: AZD5991 6h EC50
Description: as §1

SKMEL24 = details: Homo sapiens, SK-MEL-24, 6 h, read-out: AZD5991 6h EC50
Description: as §1

A375 = details: Homo sapiens, A-375, 6 h, read-out: AZD5991 6h EC50
Description: as §1

H1734 = details: Homo sapiens, NCI-H1734, 6 h, read-out: AZD5991 6h EC50
Description: as §1

MALME3M = details: Homo sapiens, Malme-3M, 6 h, read-out: AZD5991 6h EC50
Description: as §1

ML2 = details: Homo sapiens, ML-2, 6 h, read-out: AZD5991 6h EC50
Description: as §1

H460 = details: Homo sapiens, NCI-H460, 6 h, read-out: AZD5991 6h EC50
Description: as §1

HL60 = details: Homo sapiens, HL-60, 6 h, read-out: AZD5991 6h EC50
Description: as §1

HCC827 = details: Homo sapiens, HCC827, 6 h, read-out: AZD5991 6h EC50
Description: as §1

H2110 = details: NCI-H2110, 6 h, read-out: AZD5991 6h EC50
Description: as §1

H2171 = details: Homo sapiens, NCI-H2171, 6 h, read-out: AZD5991 6h EC50
Description: as §1

SNU16 = details: Homo sapiens, SNU-16, 6 h, read-out: AZD5991 6h EC50
Description: as §1

COLO829 = details: Homo sapiens, COLO-829, 6 h, read-out: AZD5991 6h EC50
Description: as §1

Toledo = details: Homo sapiens, 6 h, read-out: AZD5991 6h EC50
Description: as §1

Ramos = details: Homo sapiens, 6 h, read-out: AZD5991 6h EC50
Description: as §1

LP1 = details: Homo sapiens, LP-1, 6 h, read-out: AZD5991 6h EC50
Description: as §1

Karpas620 = details: Karpas-620, 6 h, read-out: AZD5991 6h EC50
Description: as §1

Pfeiffer = details: Homo sapiens, 6 h, read-out: AZD5991 6h EC50
Description: as §1

MM1S = details: Homo sapiens, MM1.S, 6 h, read-out: AZD5991 6h EC50
Description: as §1

EJM = details: Homo sapiens, 6 h, read-out: AZD5991 6h EC50
Description: as §1

KMS11 = details: Homo sapiens, KMS-11, 6 h, read-out: AZD5991 6h EC50
Description: as §1

OE21 = details: OE21, 6 h, read-out: AZD5991 6h EC50
Description: as §1

Sudhl5 = details: Homo sapiens, SU-DHL-5, 6 h, read-out: AZD5991 6h EC50
Description: as §1

DLD1 = details: Homo sapiens, DLD-1, 6 h, read-out: AZD5991 6h EC50
Description: as §1

MEWO = details: Homo sapiens, 6 h, read-out: AZD5991 6h EC50
Description: as §1

VAL = details: 6 h, read-out: AZD5991 6h EC50
Description: as §1

U266B1 = details: 6 h, read-out: AZD5991 6h EC50
Description: as §1

647V = details: Homo sapiens, 6 h, read-out: AZD5991 6h EC50
Description: as §1

MWCL1 = details: 6 h, read-out: AZD5991 6h EC50
Description: as §1

SKMEL2 = details: Homo sapiens, SK-MEL-2, 6 h, read-out: AZD5991 6h EC50
Description: as §1

HMCB = details: Homo sapiens, 6 h, read-out: AZD5991 6h EC50
Description: as §1

MINO = details: Homo sapiens, 6 h, read-out: AZD5991 6h EC50
Description: as §1

OV90 = details: Homo sapiens, OV-90, 6 h, read-out: AZD5991 6h EC50
Description: as §1

Will2 = details: 6 h, read-out: AZD5991 6h EC50
Description: as §1

OCILY19 = details: Homo sapiens, OCI-LY19, 6 h, read-out: AZD5991 6h EC50
Description: as §1

H1568 = details: NCI-H1568, 6 h, read-out: AZD5991 6h EC50
Description: as §1

H2122 = details: Homo sapiens, NCI-H2122, 6 h, read-out: AZD5991 6h EC50
Description: as §1

In the case of `Cc1c2c(nn1C)CSCc1cc(n(C)n1)CSc1cc(c3ccccc3c1)OCCCc1c(C(=O)O)n(C)c3c-2c(Cl)ccc13` (atropisomer, axis not shown; (Ra)) [(Ra)-7], the EC50 (KMS12BM) is reported as 56 nM, the EC50 (MCF7) is reported as 313 nM and the EC50 (SKMEL24) is reported as over 30000 nM. For the same molecule, the EC50 (A375) was over 30000 nM, the EC50 (H1734) was 20100 nM and the EC50 (MALME3M) was over 30000 nM. The EC50 (ML2) was 83 nM, the EC50 (H460) was over 30000 nM and the EC50 (HL60) was 656 nM. It also gave an EC50 (HCC827) of over 30000 nM, an EC50 (H2110) of 226 nM and an EC50 (H2171) of 141 nM. It also gave an EC50 (SNU16) of 183 nM, an EC50 (COLO829) of over 30000 nM and an EC50 (Toledo) of 1260 nM. The EC50 (Ramos) was 28 nM, the EC50 (LP1) was 249 nM and the EC50 (Karpas620) was 122 nM. The EC50 (Pfeiffer) was over 30000 nM, the EC50 (MM1S) was 3600 nM and the EC50 (EJM) was 169 nM. It also gave an EC50 (KMS11) of 1570 nM, an EC50 (OE21) of 187 nM and an EC50 (Sudhl5) of 19 nM. For the same molecule, the EC50 (DLD1) was 29100 nM, the EC50 (MEWO) was over 30000 nM and the EC50 (VAL) was 172 nM. The EC50 (U266B1) was over 30000 nM, the EC50 (647V) was 26500 nM and the EC50 (MWCL1) was 27700 nM. For the same molecule, the EC50 (SKMEL2) was 9480 nM, the EC50 (HMCB) was 25900 nM and the EC50 (MINO) was 1290 nM. It also gave an EC50 (OV90) of over 30000 nM, an EC50 (Will2) of 193 nM and an EC50 (OCILY19) of 188 nM. The EC50 (H1568) was 300 nM and the EC50 (H2122) was 15200 nM.
